Measurements from patent publication US20100305124A1, “Acylated Aminopyridine and Aminopyridazine Insecticides” (BAYER CROPSCIENCE AG, priority 2009, published 2010).

Each molecule was assayed on green peach aphid (Myzus persicae) (assay: Myzus test (MYZUPE), sprayed aubergine plants). Conditions: application rate of 100 ppm, spray on aubergine plants, read-out: effect in % (aphids killed).
Type: in vivo
Protocol: Solvent: 3 parts by weight of dimethylformamide Emulsifier: 1 part by weight of polyoxyethylenealkyl phenyl ether
An appropriate preparation of active ingredient is prepared by mixing 1 part by weight of active ingredient with the stated amount of solvent and emulsifier and diluting the concentrate with water to the desired concentration.
Aubergine plants (Solanum melongena) infested by all stages of the green peach aphid (Myzus persicae) are sprayed with a preparation of active ingredient at the desired concentration.
After the desired time, the effect in % is determined; here, 100% means that all of the aphids have been killed. Conversely, 0% means that no aphids have been killed.
Work on Cc1c(C(=O)Nc2cccnc2)cnn1-c1ncccc1Cl [I-1] yielded a pest or weed control at 100 ppm of at least 80%.

Same assay, conditions: application rate of 500 ppm, spray on aubergine plants, read-out: effect in % (aphids killed)
COc1ccc(Oc2ccc(C(=O)N(C)c3cccnc3)cn2)cc1 [I-92] showed a pest or weed control at 500 ppm of at least 80%.
CSc1ccc(C(=O)N(C)c2cccnc2)cn1 [I-110] gave a pest or weed control at 500 ppm of at least 80%.
For O=C(Nc1cccnc1)c1ccc(CSC(F)F)cc1 [I-35], the pest or weed control at 500 ppm was at least 80%.
In the case of O=C(Nc1cccnc1)c1ccc(Cn2cc(Br)c(C(F)(F)F)n2)cc1 [I-20], the pest or weed control at 500 ppm is reported as at least 80%.
Molecule Cc1cccc(Oc2ccc(C(=O)N(C)c3cccnc3)cn2)c1 [I-97] has a pest or weed control at 500 ppm of at least 80%.
For CCN(C(=O)c1ccc(N(C)C(C)=O)cc1)c1cccnc1 [I-254], the pest or weed control at 500 ppm was at least 80%.
CCSCc1ccc(C(=O)N(C)c2cccnc2)cc1 [I-58] showed a pest or weed control at 500 ppm of at least 80%.
CN(C(=O)c1cccc(Cn2cncn2)c1)c1cccnc1 [I-15] gave a pest or weed control at 500 ppm of at least 80%.
With CC#CCN(C(=O)c1ccc(Sc2nc(C)cc(C)n2)nc1)c1cccnc1 [I-226] the pest or weed control at 500 ppm was at least 80%.
In the case of CSCc1ccc(C(=O)N(C)c2cccnc2)cc1 [I-59], the pest or weed control at 500 ppm is reported as at least 80%.
With CCN(C(=O)c1ccc(Sc2nccc(C)n2)nc1)c1cccnc1 [I-197] the pest or weed control at 500 ppm was at least 80%.
Work on CN(C(=O)c1ccc(Oc2ccc(Cl)cc2Cl)nc1)c1cccnc1 [I-114] yielded a pest or weed control at 500 ppm of at least 80%.
In the case of O=C(Nc1cccnc1)c1ccc(Oc2cccc(Cl)c2)nc1 [I-83, 6-(3-Chlorophenoxy)-N-pyridin-3-ylnicotinamide], the pest or weed control at 500 ppm is reported as at least 80%.
For CN(C(=O)c1ccc(/C=N/C2CCCC2)cc1)c1cccnc1 [I-233], the pest or weed control at 500 ppm was at least 80%.
Cc1nc(Sc2ccc(C(=O)N(C)c3cccnc3)cn2)nc(C)c1C [I-138] gave a pest or weed control at 500 ppm of at least 80%.
For O=C(Nc1cccnc1)c1ccc(Cn2nc(C(F)(F)F)nc2C(F)(F)F)nc1 [I-6], the pest or weed control at 500 ppm was at least 80%.
Cc1ccnc(Sc2ccc(C(=O)Nc3cccnc3)cn2)n1 [I-195] gave a pest or weed control at 500 ppm of at least 80%.
CCN(CC)C(=O)c1ccc(C(=O)N(CC)c2cccnc2)cc1 [I-251] was tested, and the pest or weed control at 500 ppm was at least 80%.
In the case of CS(=O)(=O)c1ccc(Oc2ccc(C(=O)Nc3cccnc3)cn2)cc1 [I-217], the pest or weed control at 500 ppm is reported as at least 80%.
Work on O=C(Nc1cccnc1)c1ccc(Cn2ccc(C(F)(F)F)n2)nc1 [I-28] yielded a pest or weed control at 500 ppm of at least 80%.
COc1cc(OC)nc(Sc2ccc(C(=O)N(C)c3cccnc3)cn2)n1 [I-174] was tested, and the pest or weed control at 500 ppm was at least 80%.
In the case of Cc1ccnc(Sc2ncc(C(=O)N(C)c3cccnc3)cc2Cl)n1 [I-166], the pest or weed control at 500 ppm is reported as at least 80%.
For CN(C(=O)c1ccc(Oc2cccc(C(F)(F)F)c2)nc1)c1cccnc1 [I-100], the pest or weed control at 500 ppm was at least 80%.
Molecule CCOc1ccc(C(=O)N(C)c2cccnc2)cn1 [I-156] has a pest or weed control at 500 ppm of at least 80%.
For Cc1ccccc1Oc1ccc(C(=O)N(C)c2cccnc2)cn1 [I-96], the pest or weed control at 500 ppm was at least 80%.
In the case of COc1cc(OC)nc(Oc2ccc(C(=O)N(C)c3cccnc3)cc2)n1 [I-171], the pest or weed control at 500 ppm is reported as at least 80%.
Molecule O=C(Nc1cccnc1)c1ccc(NCC2CC2)nc1 [I-210] has a pest or weed control at 500 ppm of at least 80%.
Molecule Cc1cc(C)nc(Sc2ccc(C(=O)N(Cc3ccc(C#N)cc3)c3cccnc3)cn2)n1 [I-228] has a pest or weed control at 500 ppm of at least 80%.
CSCc1cccc(C(=O)N(C)c2cccnc2)c1 [I-57] was tested, and the pest or weed control at 500 ppm was at least 80%.
With CN(C(=O)c1ccc(Oc2ccc(Cl)cc2C#N)nc1)c1cccnc1 [I-113] the pest or weed control at 500 ppm was at least 80%.
In the case of CCN(C(=O)c1ccc(/C=N/OC(C)C)cc1)c1cccnc1 [I-236], the pest or weed control at 500 ppm is reported as at least 80%.
With O=C(Nc1cccnc1)c1ccc(N2CCCCC2)nc1 [I-205] the pest or weed control at 500 ppm was at least 80%.
N#Cc1ccc(Oc2ccc(C(=O)Nc3cccnc3)cn2)cc1 [I-164] was tested, and the pest or weed control at 500 ppm was at least 80%.
Molecule Cc1cc(C)nc(Sc2ncc(C(=O)N(C)c3cccnc3)cc2Cl)n1 [I-152] has a pest or weed control at 500 ppm of at least 80%.
Work on Cc1cc(C)nc(Sc2ccc(C(=O)N(C)c3ccnnc3)cn2)n1 [I-222] yielded a pest or weed control at 500 ppm of at least 80%.
Work on CN(C(=O)c1ccc(N(C)C(=O)C(F)(F)Cl)cc1)c1cccnc1 [I-245] yielded a pest or weed control at 500 ppm of at least 80%.
Molecule CN(C(=O)c1ccc(Oc2ccc(S(C)(=O)=O)cc2)nc1)c1cccnc1 [I-101] has a pest or weed control at 500 ppm of at least 80%.
CCN(C)C(=O)c1cc(C(=O)Nc2cccnc2)ccc1OC [I-76] gave a pest or weed control at 500 ppm of at least 80%.
Work on Cc1cc(C)nc(Sc2ccc(C(=O)N(Cc3ccc([N+](=O)[O-])cc3)c3cccnc3)cn2)n1 [I-229] yielded a pest or weed control at 500 ppm of at least 80%.
CCN(C(=O)c1ccc(Oc2ccc(-n3cncn3)cc2)nc1)c1cccnc1 [I-219] was tested, and the pest or weed control at 500 ppm was at least 80%.
CCN(C(=O)c1ccc(Oc2ccc(C(F)(F)F)cc2)nc1)c1cccnc1 [I-157] was tested, and the pest or weed control at 500 ppm was at least 80%.
Molecule C=CCN(C(=O)c1ccc(Oc2ccc(OC(F)(F)F)cc2)nc1)c1cccnc1 [I-134] has a pest or weed control at 500 ppm of at least 80%.
CCN(C(=O)c1ccc(Oc2nc(OC)cc(OC)n2)cc1)c1cccnc1 [I-172] was tested, and the pest or weed control at 500 ppm was at least 80%.
Work on CCN(C(=O)c1ccc(Sc2nc(C)c(C)c(C)n2)nc1)c1cccnc1 [I-220] yielded a pest or weed control at 500 ppm of at least 80%.
Work on CN(C(=O)c1ccc(NC(=O)CC(F)(F)F)cc1)c1cccnc1 [I-51] yielded a pest or weed control at 500 ppm of at least 80%.
CN(C(=O)c1ccc(C(=O)NCc2ccccc2)cc1)c1cccnc1 [I-255] was tested, and the pest or weed control at 500 ppm was at least 80%.
O=C(Nc1cccnc1)c1ccc(SC(F)(F)F)cc1 [I-37] gave a pest or weed control at 500 ppm of at least 80%.
Molecule CCCN(C(=O)c1ccc(Oc2ccc(OC(F)(F)F)cc2)nc1)c1cccnc1 [I-133] has a pest or weed control at 500 ppm of at least 80%.
COc1cc(OC)nc(Oc2ccc(C(=O)Nc3cccnc3)cc2)n1 [I-170] was tested, and the pest or weed control at 500 ppm was at least 80%.
In the case of CN(C(=O)c1ccc(Oc2ccc(C#N)cc2)nc1)c1cccnc1 [I-90], the pest or weed control at 500 ppm is reported as at least 80%.
CCN(C)C(=O)c1cccc(C(=O)N(C)c2cccnc2)c1 [I-74] was tested, and the pest or weed control at 500 ppm was at least 80%.
For CN(C(=O)c1ccc(Oc2cc(Cl)cc(Cl)c2)nc1)c1cccnc1 [I-123], the pest or weed control at 500 ppm was at least 80%.
CN(C(=O)c1ccc(Sc2ccc(Cl)cc2)nc1)c1cccnc1 [I-107] was tested, and the pest or weed control at 500 ppm was at least 80%.
CC(C)SCc1ccc(C(=O)N(C)c2cccnc2)cc1 [I-61] showed a pest or weed control at 500 ppm of at least 80%.
With O=C(Nc1cccnc1)c1ccc(Cn2nc(C(F)(F)F)nc2C(F)(F)F)c(Cl)c1 [I-18] the pest or weed control at 500 ppm was at least 80%.
For CN(C)C(=O)c1ccc(C(=O)Nc2cccnc2)cc1 [I-41], the pest or weed control at 500 ppm was at least 80%.
For CCN(C(=O)c1ccc(N(C)C(=O)C(F)(F)Cl)cc1)c1cccnc1 [I-246], the pest or weed control at 500 ppm was at least 80%.
With O=C(Nc1cccnc1)c1ccc(Oc2cccc(C(F)(F)F)c2)nc1 [I-88] the pest or weed control at 500 ppm was at least 80%.
For C#CCN(C(=O)c1ccc(Cl)nc1)c1cccnc1 [I-232], the pest or weed control at 500 ppm was at least 80%.
For O=C(Nc1cccnc1)c1ccc(Cn2nc(C(F)(F)F)nc2C(F)(F)F)cc1 [I-5], the pest or weed control at 500 ppm was at least 80%.
Molecule CN(C(=O)c1ccc(Oc2ccc(OC(F)(F)F)cc2)nc1)c1cccnc1 [I-116] has a pest or weed control at 500 ppm of at least 80%.
In the case of CSc1cccc(C(=O)N(C)c2cccnc2)c1 [I-69], the pest or weed control at 500 ppm is reported as at least 80%.
In the case of CSc1ccc(C(=O)Nc2cccnc2)cn1 [I-108], the pest or weed control at 500 ppm is reported as at least 80%.
CN(C(=O)c1ccc(Cn2nc(C(F)(F)F)nc2C(F)(F)F)nc1)c1cccnc1 [I-50] was tested, and the pest or weed control at 500 ppm was at least 80%.
Molecule COc1cc(OC)nc(Oc2ccc(C(=O)Nc3cccnc3)cn2)n1 [I-168] has a pest or weed control at 500 ppm of at least 80%.
In the case of CCN(C(=O)c1ccc(SC)cc1)c1cccnc1 [I-63], the pest or weed control at 500 ppm is reported as at least 80%.
COc1nc(OC)nc(Sc2ccc(C(=O)N(C)c3cccnc3)cc2)n1 [I-189] was tested, and the pest or weed control at 500 ppm was at least 80%.
CN(C(=O)c1ccc(Sc2ncccn2)nc1)c1cccnc1 [I-136] was tested, and the pest or weed control at 500 ppm was at least 80%.
In the case of O=C(Nc1cccnc1)c1ccc(N2CCOCC2)nc1 [I-212], the pest or weed control at 500 ppm is reported as at least 80%.
CN(C(=O)c1ccc(Oc2ccc([N+](=O)[O-])cc2)nc1)c1cccnc1 [I-93] gave a pest or weed control at 500 ppm of at least 80%.
Molecule CN(C)c1ccc(C(=O)Nc2cccnc2)cn1 [I-184] has a pest or weed control at 500 ppm of at least 80%.
Molecule CC(=O)N(C)c1ccc(C(=O)N(C)c2cccnc2)cc1 [I-253] has a pest or weed control at 500 ppm of at least 80%.
In the case of CC(=O)N(Cc1ccc(C(=O)N(C)c2cccnc2)cc1)CC(C)C [I-238], the pest or weed control at 500 ppm is reported as at least 80%.
O=C(Nc1cccnc1)c1ccc(Oc2ccc(Br)cc2)nc1 [I-84] gave a pest or weed control at 500 ppm of at least 80%.
CN(C(=O)c1cnc(Oc2ccc(C(F)(F)F)cc2)c(Cl)c1)c1cccnc1 [I-146] gave a pest or weed control at 500 ppm of at least 80%.
In the case of CCSCc1ccc(C(=O)Nc2cccnc2)cc1 [I-33], the pest or weed control at 500 ppm is reported as at least 80%.
Work on CN(C(=O)c1ccc(Oc2ccc3cccnc3c2)nc1)c1cccnc1 [I-141] yielded a pest or weed control at 500 ppm of at least 80%.
CCN(C(=O)c1ccc(C(=O)OC)cc1)c1cccnc1 [I-241] showed a pest or weed control at 500 ppm of at least 80%.
CCN(C(=O)c1ccc(Oc2nc(C)cc(C)n2)nc1)c1cccnc1 [I-187] was tested, and the pest or weed control at 500 ppm was at least 80%.
In the case of Cc1cc(C)nc(Sc2ccc(C(=O)N(C)c3cccnc3)cn2)n1 [I-104], the pest or weed control at 500 ppm is reported as at least 80%.
In the case of O=C(Nc1cccnc1)c1ccc(Cn2cnc(C(F)(F)F)n2)cc1 [I-8], the pest or weed control at 500 ppm is reported as at least 80%.
Molecule CCN(CC)C(=O)c1ccc(C(=O)Nc2cccnc2)cc1 [I-250] has a pest or weed control at 500 ppm of at least 80%.
CC(=O)N(C)c1ccc(C(=O)Nc2cccnc2)cc1 [I-252] showed a pest or weed control at 500 ppm of at least 80%.
For Cc1cc(C)nc(Oc2ccc(C(=O)Nc3cccnc3)cc2)n1 [I-181], the pest or weed control at 500 ppm was at least 80%.
COc1cc(OC)nc(Sc2ccc(C(=O)N(C)c3cccnc3)cc2)n1 [I-177] was tested, and the pest or weed control at 500 ppm was at least 80%.

Same assay, conditions: read-out: effect in % (aphids killed)
CCN(C(=O)c1ccc(N(C)C(=O)C(F)(F)C(F)(F)C(F)(F)F)cc1)c1cccnc1 [I-248] gave a pest or weed control at 500 ppm of at least 80%.
For O=C(Nc1cccnc1)c1ccc(C(F)(F)C(F)(F)C(F)(F)F)nc1 [I-30], the pest or weed control at 500 ppm was at least 80%.
CN(C(=O)c1ccc(N(C)C(=O)C(F)(F)C(F)(F)C(F)(F)F)cc1)c1cccnc1 [I-247] gave a pest or weed control at 500 ppm of at least 80%.
